From ChEMBL document CHEMBL5532638, “Current development of 1,2,3-triazole derived potential antimalarial scaffolds: Structure- activity relationship (SAR) and bioactive compounds” (Eur J Med Chem, 2023)

Test system: Plasmodium falciparum
Assay: Antiplasmodial activity against CQ-resistant Plasmodium falciparum K1 infected in human O+ RBCs assessed as parasite growth inhibition incubated for 72 hrs by ELISA
Format: functional, organism-based
Conditions: K1, 72 h
With `O=C1C(Oc2ccccc2)C(c2ccc([N+](=O)[O-])cc2)N1c1ccc(OCc2cn(Cc3ccccc3)nn2)cc1` (stereo not drawn) the IC50 was 850 nM.
`C=CCn1cc(COc2ccc(N3C(=O)C(Oc4ccccc4)C3c3cccc(OC)c3)cc2)nn1` (stereo not drawn) showed an IC50 of 850 nM.
`CCOC(=O)Cn1cc(COc2ccc(C3C(Oc4ccccc4)C(=O)N3c3ccc(OCc4cn(CC(=O)OCC)nn4)cc3)cc2)nn1` (stereo not drawn) showed an IC50 of 850 nM.
With `O=C1C(Oc2ccccc2)C(c2ccccc2)N1c1ccc(OCc2cn(Cc3ccccc3)nn2)cc1` (stereo not drawn) the IC50 was 850 nM.
`C=CCn1cc(COc2ccc(N3C(=O)C(Oc4ccccc4)C3c3ccccc3)cc2)nn1` (stereo not drawn) showed an IC50 of 850 nM.
In the case of `O=C1C(Oc2ccccc2)C(c2ccccc2Cl)N1c1ccc(OCc2cn(Cc3ccccc3)nn2)cc1` (stereo not drawn), the IC50 is reported as 850 nM.
With `C=CCn1cc(COc2ccc(C3C(Oc4ccccc4)C(=O)N3c3ccc(C)cc3)cc2)nn1` (stereo not drawn) the IC50 was 850 nM.
For `C=CCn1cc(COc2ccc(N3C(=O)C(Oc4ccccc4)C3c3ccc(C)cc3)cc2)nn1` (stereo not drawn), the IC50 was 850 nM.
For `COc1ccc(N2C(=O)C(Oc3ccccc3)C2c2ccc(OCc3cn(Cc4ccccc4)nn3)cc2)cc1OC` (stereo not drawn), the IC50 was 850 nM.
In the case of `Cc1ccc(C2C(Oc3ccccc3)C(=O)N2c2ccc(OCc3cn(Cc4ccccc4)nn3)cc2)cc1` (stereo not drawn), the IC50 is reported as 850 nM.
In the case of `C=CCn1cc(COc2ccc(C3C(Oc4ccccc4)C(=O)N3c3ccc(OCc4cn(CC=C)nn4)cc3)cc2)nn1` (stereo not drawn), the IC50 is reported as 850 nM.
Work on `Cc1ccc(N2C(=O)C(Oc3ccccc3)C2c2ccc(OCc3cn(Cc4ccccc4)nn3)cc2)cc1` (stereo not drawn) yielded an IC50 of 850 nM.
Compound `CCOC(=O)Cn1cc(COc2ccc(C3C(Oc4ccc(Cl)cc4Cl)C(=O)N3c3ccc(OCc4cn(CC(=O)OCC)nn4)cc3)cc2)nn1` (stereo not drawn) has an IC50 of 850 nM.
`C=CCn1cc(COc2ccc(N3C(=O)C(Oc4ccccc4)C3c3ccc([N+](=O)[O-])cc3)cc2)nn1` (stereo not drawn) gave an IC50 of 850 nM.
In the case of `C=CCn1cc(COc2ccc(C3C(Oc4ccccc4)C(=O)N3c3ccccc3)cc2)nn1` (stereo not drawn), the IC50 is reported as 850 nM.
`C=CCn1cc(COc2ccc(C3C(Oc4ccc(Cl)cc4Cl)C(=O)N3c3ccc(OCc4cn(CC=C)nn4)cc3)cc2)nn1` (stereo not drawn) gave an IC50 of 850 nM.
`CCOC(=O)Cn1cc(COc2ccc(C3C(OC)C(=O)N3c3ccc(OCc4cn(CC(=O)OCC)nn4)cc3)cc2)nn1` (stereo not drawn) showed an IC50 of 850 nM.
In the case of `O=C1C(Oc2ccccc2)C(c2ccc(OCc3cn(Cc4ccccc4)nn3)cc2)N1c1ccccc1` (stereo not drawn), the IC50 is reported as 850 nM.
With `O=C1C(Oc2ccccc2)C(c2ccc(OCc3cn(Cc4ccccc4)nn3)cc2)N1c1ccc(OCc2cn(Cc3ccccc3)nn2)cc1` (stereo not drawn) the IC50 was 970 nM.
With `O=C1C(Oc2ccc(Cl)cc2Cl)C(c2ccc(OCc3cn(Cc4ccccc4)nn3)cc2)N1c1ccc(OCc2cn(Cc3ccccc3)nn2)cc1` (stereo not drawn) the IC50 was 970 nM.
`COc1cccc(C2C(Oc3ccccc3)C(=O)N2c2ccc(OCc3cn(Cc4ccccc4)nn3)cc2)c1` (stereo not drawn) gave an IC50 of 850 nM.

Test system: not listed separately
Assay: Cytotoxicity against human PC-3 cells incubated for 72 hrs by MTT assay
Format: toxicity, cell-based
Conditions: not given
In the case of `COc1ccc2cc3[n+](cc2c1OCc1cn(-c2ccc(S(=O)(=O)N4CCOCC4)cc2)nn1)CCc1cc2c(cc1-3)OCO2.[Cl-]`, the CC50 at 72 h is reported as > 200 µg/mL.
In the case of `COc1ccc(NS(=O)(=O)c2ccc(-n3cc(COc4c(OC)ccc5cc6[n+](cc45)CCc4cc5c(cc4-6)OCO5)nn3)cc2)cc1.[Cl-]`, the CC50 at 72 h is reported as > 200 µg/mL.
With `COc1ccc2cc3[n+](cc2c1OCc1cn(-c2ccc(S(=O)(=O)Nc4ccc(F)cc4)cc2)nn1)CCc1cc2c(cc1-3)OCO2.[Cl-]` the CC50 at 72 h was > 200 µg/mL.
With `COc1ccc2cc3[n+](cc2c1OCc1cn(-c2ccc(S(=O)(=O)Nc4ccc(Cl)cc4)cc2)nn1)CCc1cc2c(cc1-3)OCO2` the CC50 at 72 h was > 200 µg/mL.
In the case of `COc1ccc2cc3[n+](cc2c1OCc1cn(-c2ccc(S(=O)(=O)N4CCN(C)CC4)cc2)nn1)CCc1cc2c(cc1-3)OCO2.[Cl-]`, the CC50 at 72 h is reported as > 200 µg/mL.
In the case of `COc1ccc2cc3[n+](cc2c1OCc1cn(-c2ccc(S(=O)(=O)N4CCCCC4)cc2)nn1)CCc1cc2c(cc1-3)OCO2.[Cl-]`, the CC50 at 72 h is reported as > 200 µg/mL.
For `COc1ccc2cc3[n+](cc2c1OCc1cn(-c2ccc(S(N)(=O)=O)cc2)nn1)CCc1cc2c(cc1-3)OCO2.[Cl-]`, the CC50 at 72 h was > 200 µg/mL.
For `COc1ccc2cc3[n+](cc2c1OCc1cn(-c2ccc(S(=O)(=O)Nc4ccccc4)cc2)nn1)CCc1cc2c(cc1-3)OCO2.[Cl-]`, the CC50 at 72 h was > 200 µg/mL.
In the case of `COc1ccc2cc3[n+](cc2c1OCc1cn(-c2ccc(S(=O)(=O)Nc4ccc(Br)cc4)cc2)nn1)CCc1cc2c(cc1-3)OCO2.[Cl-]`, the CC50 at 72 h is reported as > 200 µg/mL.
With `COc1ccc2cc3[n+](cc2c1OCc1cn(-c2ccc(S(=O)(=O)Nc4ccc([N+](=O)[O-])cc4)cc2)nn1)CCc1cc2c(cc1-3)OCO2.Cl` the CC50 at 72 h was > 200 µg/mL.
For `COc1ccc2cc3[n+](cc2c1OCc1cn(-c2ccc(S(=O)(=O)N4CCN(c5ccccn5)CC4)cc2)nn1)CCc1cc2c(cc1-3)OCO2.[Cl-]`, the CC50 at 72 h was > 200 µg/mL.
For `COc1ccc2cc3[n+](cc2c1OCc1cn(-c2ccc(S(=O)(=O)Nc4nc(C)cc(C)n4)cc2)nn1)CCc1cc2c(cc1-3)OCO2.[Cl-]`, the CC50 at 72 h was > 200 µg/mL.
For `COc1ccc2cc3[n+](cc2c1OCc1cn(-c2ccc(S(=O)(=O)N4CCN(S(=O)(=O)c5ccc(-n6cc(COc7c(OC)ccc8cc9[n+](cc78)CCc7cc8c(cc7-9)OCO8)nn6)cc5)CC4)cc2)nn1)CCc1cc2c(cc1-3)OCO2.[Cl-].[Cl-]`, the CC50 at 72 h was > 200 µg/mL.

Test system: Plasmodium falciparum
Assay: Antimalarial activity against CQ-resistant Plasmodium falciparum RKL-9 field isolate at asexual stage assessed as parasite growth inhibition incubated for 22 to 36 hrs by SMI assay
Format: functional, organism-based
Conditions: not given
In the case of `O=C(Cn1cc(COc2ccc(Cl)cc2)nn1)NCCNc1ccnc2cc(Cl)ccc12`, the IC50 is reported as < 100 nM.
For `O=C(Cn1cc(COc2ccccc2)nn1)NCCCNc1ccnc2cc(Cl)ccc12`, the IC50 was 75 nM.
For `O=C(Cn1cc(Oc2ccc(Cl)cc2)nn1)NCCNc1ccnc2cc(Cl)ccc12`, the IC50 was 8.5 nM.

Test system: Plasmodium falciparum
Assay: Antimalarial activity against Plasmodium falciparum 3D7 assessed as parasite growth inhibition incubated for 42 hrs by [3H]-hypoxanthine incorporation assay
Format: functional, organism-based
Conditions: not given
Compound `COc1ccc2cc3[n+](cc2c1OCc1cn(-c2ccc(S(=O)(=O)N4CCOCC4)cc2)nn1)CCc1cc2c(cc1-3)OCO2.[Cl-]` has an IC50 of 0.1 µg/mL.
`COc1ccc(NS(=O)(=O)c2ccc(-n3cc(COc4c(OC)ccc5cc6[n+](cc45)CCc4cc5c(cc4-6)OCO5)nn3)cc2)cc1.[Cl-]` showed an IC50 of 0.5 µg/mL.
In the case of `COc1ccc2cc3[n+](cc2c1OCc1cn(-c2ccc(S(=O)(=O)Nc4ccc(F)cc4)cc2)nn1)CCc1cc2c(cc1-3)OCO2.[Cl-]`, the IC50 is reported as 0.1 µg/mL.
`COc1ccc2cc3[n+](cc2c1OCc1cn(-c2ccc(S(=O)(=O)N4CCN(C)CC4)cc2)nn1)CCc1cc2c(cc1-3)OCO2.[Cl-]` gave an IC50 of 0.1 µg/mL.
In the case of `COc1ccc2cc3[n+](cc2c1OCc1cn(-c2ccc(S(=O)(=O)N4CCCCC4)cc2)nn1)CCc1cc2c(cc1-3)OCO2.[Cl-]`, the IC50 is reported as 0.1 µg/mL.
With `COc1ccc2cc3[n+](cc2c1OCc1cn(-c2ccc(S(N)(=O)=O)cc2)nn1)CCc1cc2c(cc1-3)OCO2.[Cl-]` the IC50 was 0.1 µg/mL.
`COc1ccc2cc3[n+](cc2c1OCc1cn(-c2ccc(S(=O)(=O)Nc4ccccc4)cc2)nn1)CCc1cc2c(cc1-3)OCO2.[Cl-]` gave an IC50 of 0.2 µg/mL.
In the case of `COc1ccc2cc3[n+](cc2c1OCc1cn(-c2ccc(S(=O)(=O)Nc4ccc(Br)cc4)cc2)nn1)CCc1cc2c(cc1-3)OCO2.[Cl-]`, the IC50 is reported as 0.1 µg/mL.
Compound `COc1ccc2cc3[n+](cc2c1OCc1cn(-c2ccc(S(=O)(=O)Nc4ccc([N+](=O)[O-])cc4)cc2)nn1)CCc1cc2c(cc1-3)OCO2.Cl` has an IC50 of 0.1 µg/mL.
`COc1ccc2cc3[n+](cc2c1OCc1cn(-c2ccc(S(=O)(=O)N4CCN(c5ccccn5)CC4)cc2)nn1)CCc1cc2c(cc1-3)OCO2.[Cl-]` showed an IC50 of 0.1 µg/mL.
Work on `COc1ccc2cc3[n+](cc2c1OCc1cn(-c2ccc(S(=O)(=O)Nc4nc(C)cc(C)n4)cc2)nn1)CCc1cc2c(cc1-3)OCO2.[Cl-]` yielded an IC50 of 0.1 µg/mL.
With `COc1ccc2cc3[n+](cc2c1OCc1cn(-c2ccc(S(=O)(=O)N4CCN(S(=O)(=O)c5ccc(-n6cc(COc7c(OC)ccc8cc9[n+](cc78)CCc7cc8c(cc7-9)OCO8)nn6)cc5)CC4)cc2)nn1)CCc1cc2c(cc1-3)OCO2.[Cl-].[Cl-]` the IC50 was 0.1 µg/mL.

Test system: Plasmodium falciparum
Assay: Antiplasmodial activity against Plasmodium falciparum 3D7 infected in human red blood cells assessed as parasite growth inhibition incubated for 72 hrs by SYBR Green I staining based analysis
Format: functional, organism-based, Red blood cell
Conditions: 3D7, Erythrocyte
`O=C(N/N=C/c1cn(-c2ccccc2)nn1)c1ccncc1` showed an IC50 of 2800 nM.
Compound `O=C(N/N=C/c1cn(-c2ccc(Cl)cc2)nn1)c1ccncc1` has an IC50 of 2800 nM.
`COc1ccc(-n2cc(/C=N/NC(=O)c3ccncc3)nn2)cc1` gave an IC50 of 2800 nM.
In the case of `COc1ccc(-n2cc(COC(=O)c3ccccc3)nn2)cc1`, the IC50 is reported as 2800 nM.
